Values quoted from earlier work as cited in patent US12090420B2, “Systems and methods for recovering amines and their derivatives from aqueous mixtures” (INV Nylon Chemicals Americas, LLC, priority 2018, dated 2024).

Conditions: not given

In the case of `CCCCCCN` [Hexylamine], the “highest pKa value” is given as 10.5.

Same assay, conditions: diamines

For `NCCCCN` [1,4-butanediamine], the “Higher pKa” value is given as 11.2.

In the case of `NCCCCN` [1,4-butanediamine], the “Lower pKa” value is listed as 9.7.

Same assay, conditions: diamines; 25° C.

In order of rising “Higher pKa” value:
1. NCCCCCN [1,5-pentanediamine]  10.93
2. NCCCCCCN [1,6-hexanediamine]  11.02

In order of rising “Lower pKa” value:
1. NCCCCCN [1,5-pentanediamine]  10.05
2. NCCCCCCN [1,6-hexanediamine]  10.24

Same assay, conditions: monoamines; single pKa taken as highest pKa

In order of rising pKa:
1. c1ccc2cnccc2c1 [Isoquinoline]  5.42
2. Cc1cccnc1 [3-Methylpyridine]  5.52
3. c1ccc2c(c1)cnc1ccccc12 [Benzo[c]quinoline]  5.58
4. CCc1ccccn1 [2-Ethylpyridine]  5.89
5. Cc1ccncc1 [4-Methylpyridine]  6.08
6. CC(C)CN [iso-Butylamine]  10.43
7. CCCCCCN [Hexylamine]  10.56
8. CCCCCCCCCCCCCCCCN [Hexadecylamine]  10.63
9. CCCCCN [Pentylamine]  10.63
10. CCCCCCCCCN [Nonylamine]  10.64
11. CCCCCCCCN [Octylamine]  10.65
12. CCCCCCCN [Heptylamine]  10.67
